In US5670538A, “Use of prodelphinidins for obtaining medicaments intended for the treatment of arthrosis” (Laboratoires Dolisos, priority 1992, dated 1997):
Like-named read-outs stand apart in the source and are kept apart here.

What was measured:
[1] = Production of OH° hydroxyl radicals (gamma irradiation, KMB substrate, ethylene by gas chromatography); format: biochemical; conditions: for % inhibition of the production of hydroxyl radicals: Substrate: KMB, relative to the controls
Description: 8. Production of OH° hydroxyl radicals
The products are dissolved in 10 ml flasks at the required concentration in phosphate buffer: 6.6.10^-2 M, pH 7.4 in the presence of alpha keto methiolbutyric acid (10^-3 M: KMB). After the flasks have been hermetically sealed, the samples are irradiated with gamma rays provided by a ^137 Cs source.
The OH° radicals produced by the gamma radiation react with the KMB to produce the ethylene detected by a gas chromatograph. The height of the ethylene peak is proportional to the quantity of free radicals formed in the medium (Weis et al., 1978).

[2] = test system: human articular chondrocytes; assay: Radioimmunoassay of cartilaginous proteoglycans (PG) produced in tridimensional culture of human chondrocytes; format: cell-based; conditions: for PG in the clusters over 12 days: 0-12 days
Excerpt: The model used for testing the proanthocyanidols, namely the tridimensional culture of human chondrocytes allows chondrorepair to be quantified by the production of matrix substances: type II collagen, proteoglycans, and chondroresorption by the reduction in the levels of prostaglandin E2 and of OH° and O°2 type free radicals produced.
1. Tridimensional culture of human chondrocytes
The technique used has been described in detail (Bassleer et al., 1986).
Briefly, human articular chondrocytes are cultivated in DMEM (Dulbecco's Modification of Eagle's Medium--ICN--Gand, Belgium) with either Ultroser G 1% (GIBCO, Gand, Belgium) or 10% of foetal calf serum (ICN--Gand--Belgium), and 50 μg of ascorbic acid/ml added to it. The cartilage originates from the apparently normal zone of heads of human femur suffering from arthrosis, immediately after an operation carried out to insert a total hip prosthesis; it can also originate from the head of a healthy femur, but which has undergone a traumatism and has had to be replaced. This cartilage is then digested by clostridial collagenase 1 mg/ml (Boehringer-Mannheim, Germany) in a buffer (NaCl 120 mM, CaCl2 1 mM, KCl 5 mM, KH2 PO4 1 mM, NaHCO3 25 mM, glucose 2 mM and Hepes 30 mM, pH 7.4) for 24 hours. After 6 successive washings and centrifugations, the chondrocytes, isolated from their matrix, are cultured in flasks (10^6 cells/2 ml of culture medium) placed on a gyrator (10 rpm). The cultures are kept at 37° C. in an atmosphere of air 95%-CO2 5% (Bassleer et al., 1986). Cultivated under these conditions, after 4 to 5 days the chondrocytes form a tridimensional cluster in each flask. These clusters, which at first have a flocculent appearance, then tend to condense during the culture. After two weeks, their diameter is, in general, from 1 to 2 mm.
The fresh weight of the clusters increases with the duration of the culture, above all during the few first days.
2. Radioimmunoassay of cartilaginous proteoglycans (PG)
The PGs are measured with a radioimmunoassay (RIA) which is specific and sensitive to human cartilaginous PGs (Gysen et al. 1984). The PGs were extracted from human cartilage, according to the methods described by Roughley et al., (1981) and by Bayliss and Venn (1980). The antiserum against the cartilaginous PGs was obtained from the rabbit according to the technique of Vaitukaitis et al. (1971). The radioimmunoassay is carried out in a 0.4 ml volume consisting of 0.1 ml of tracer solution (15000 to 20000 cpm ^125 I-PG, labelled by the chloramine T method (Greenwood, 1973). 0.1 ml of anti-PG antiserum diluted to 1/5000 in phosphate-buffered saline (PBS-50 mM PO4, 150 mM NaCl ), containing BSA (5 g/l bovine serum albumin and 6.7 mM sodium azide) (incubation buffer) and 0.2 ml of several dilutions of the culture medium or of the cluster extract or also of the antigen (0.5 -500 ng/tube).
After four days at 4° C., the free PGs* (radioactive PGs) are separated from the PG*-antibody complexes by double precipitation (Franchimont et al., 1983).
The sensitivity of the assay is 0.6 ng/tube. The accuracy of measurement is of the order of 4%. The coefficients of the intra- and inter assay variation are less than 10% and 20% respectively.
The antibodies are directed against the antigenic determinants of the central protein of PG. There is a complete crossed reaction with human PGs of cartilage from the ribs, vertebral disks and trachea, even with PGs extracted from veins or arteries. There is no cross reaction with glycosaminoglycans or with PGs extracted from foetal tissues or the small PGs from bone.
The PGs are measured directly in the culture medium. As for the chondrocyte clusters, they are washed 3 times in a phosphate-buffered saline (PBS-50 mM PO4, 150 mM NaCl pH 7.4) containing protease inhibitors (Oegema et al., 1975:100 mM 6-aminohexanoic acid, 10 mM EDTA, 50 mM benzamidine hydrochloride, 5.10^-8 M trypsin inhibitor, 6.7 mM sodium azide and 200 U/ml superoxide dismutase). […]

SMILES: Oc1cc(O)c2c(c1)O[C@H](c1cc(O)c(O)c(O)c1)[C@@H](O)[C@@H]2c1c(O)cc(O)c2c1O[C@H](c1cc(O)c(O)c(O)c1)[C@@H](O)C2 [Substance Ib, GC-(4 alpha→8) GC]
- % inhibition of the production of hydroxyl radicals ([1]; 10^-3 M): 80%
- % inhibition of the production of hydroxyl radicals ([1]; 10^-4 M): 46%
- % inhibition of the production of hydroxyl radicals ([1]; 10^-5 M): 25%
- Production of free radicals from KMB, effect in words ([1]; Table 22): significantly inhibits
- PG in the clusters over 12 days ([2]; 1% Ultroser G, 1 μg/ml): 742 ± 62 ng/μg DNA
- PG in the clusters over 12 days ([2]; 1% Ultroser G, 10 μg/ml): 931 ± 24 ng/μg DNA
- PG in the clusters over 12 days ([2]; 1% Ultroser G, 100 μg/ml): 1108 ± 45 ng/μg DNA
- Concentrations of PG in the clusters, effect in words ([2]; 1% Ultroser G, 1 μg/ml): no significant effect
- PGs released in the culture medium ([2]; 1% Ultroser G, culture time 0-4 days, 1 μg/ml): 13.0 ± 1.22 μg/μg DNA/96 h
- PGs released in the culture medium ([2]; 1% Ultroser G, culture time 0-4 days, 10 μg/ml): 20.4 ± 3.0 μg/μg DNA/96 h
- PGs released in the culture medium ([2]; 1% Ultroser G, culture time 0-4 days, 100 μg/ml): 28.2 ± 2.92 μg/μg DNA/96 h
- PGs released in the culture medium ([2]; 1% Ultroser G, culture time 4-8 days, 1 μg/ml): 3.45 ± 0.56 μg/μg DNA/96 h
- PGs released in the culture medium ([2]; 1% Ultroser G, culture time 4-8 days, 10 μg/ml): 4.78 ± 0.56 μg/μg DNA/96 h
- PGs released in the culture medium ([2]; 1% Ultroser G, culture time 4-8 days, 100 μg/ml): 5.65 ± 0.24 μg/μg DNA/96 h
- PGs released in the culture medium ([2]; 1% Ultroser G, culture time 8-12 days, 1 μg/ml): 0.72 ± 0.08 μg/μg DNA/96 h
- PGs released in the culture medium ([2]; 1% Ultroser G, culture time 8-12 days, 10 μg/ml): 1.00 ± 0.12 μg/μg DNA/96 h
- PGs released in the culture medium ([2]; 1% Ultroser G, culture time 8-12 days, 100 μg/ml): 1.32 ± 0.01 μg/μg DNA/96 h
- Proteoglycans released during the 12 days of culture, Abs ([2]; 1% Ultroser G, cumulative, 1 μg/ml): 17.2 μg/μg DNA/12 days
- Proteoglycans released during the 12 days of culture, Abs ([2]; 1% Ultroser G, cumulative, 10 μg/ml): 26.3 μg/μg DNA/12 days
- Proteoglycans released during the 12 days of culture, Abs ([2]; 1% Ultroser G, cumulative, 100 μg/ml): 35.2 μg/μg DNA/12 days
- activity at 1 µg/mL ([2]; Homo sapiens, Chondrocyte, 288 h, 1% Ultroser G, cumulative, 1 μg/ml, control = 100, read-out: Proteoglycans released during the 12 days of culture, %): 98%
- activity at 10 µg/mL ([2]; Homo sapiens, Chondrocyte, 288 h, 1% Ultroser G, cumulative, 10 μg/ml, control = 100, read-out: Proteoglycans released during the 12 days of culture, %): 149%
- activity at 100 µg/mL ([2]; Homo sapiens, Chondrocyte, 288 h, 1% Ultroser G, cumulative, 100 μg/ml, control = 100, read-out: Proteoglycans released during the 12 days of culture, %): 200%
- activity at 10 µg/mL ([2]; Homo sapiens, Chondrocyte, foetal calf serum, Table 14, 0-4 days, 10 μg/ml, control = 100%, read-out: PG in the culture medium, % of control): 117%
- activity at 100 µg/mL ([2]; Homo sapiens, Chondrocyte, foetal calf serum, Table 14, 0-4 days, 100 μg/ml, control = 100%, read-out: PG in the culture medium, % of control): 184%
- activity at 10 µg/mL ([2]; Homo sapiens, Chondrocyte, foetal calf serum, Table 14, 4-8 days, 10 μg/ml, control = 100%, read-out: PG in the culture medium, % of control): 117%
- activity at 100 µg/mL ([2]; Homo sapiens, Chondrocyte, foetal calf serum, Table 14, 4-8 days, 100 μg/ml, control = 100%, read-out: PG in the culture medium, % of control): 136%
- activity at 10 µg/mL ([2]; Homo sapiens, Chondrocyte, foetal calf serum, Table 15, 0-4 days, 10 μg/ml, control = 100%, read-out: PG in the culture medium, % of control): 134%
- activity at 100 µg/mL ([2]; Homo sapiens, Chondrocyte, foetal calf serum, Table 15, 0-4 days, 100 μg/ml, control = 100%, read-out: PG in the culture medium, % of control): 149%
- activity at 10 µg/mL ([2]; Homo sapiens, Chondrocyte, foetal calf serum, Table 15, 4-8 days, 10 μg/ml, control = 100%, read-out: PG in the culture medium, % of control): 125%
- activity at 100 µg/mL ([2]; Homo sapiens, Chondrocyte, foetal calf serum, Table 15, 4-8 days, 100 μg/ml, control = 100%, read-out: PG in the culture medium, % of control): 137%
- activity at 10 µg/mL ([2]; Homo sapiens, Chondrocyte, foetal calf serum, Table 16, 0-8 days, 10 μg/ml, control = 100%, read-out: PG in the clusters over 8 days, % of control): 141%
- activity at 100 µg/mL ([2]; Homo sapiens, Chondrocyte, foetal calf serum, Table 16, 0-8 days, 100 μg/ml, control = 100%, read-out: PG in the clusters over 8 days, % of control): 146%
- activity at 10 µg/mL ([2]; Homo sapiens, Chondrocyte, foetal calf serum, Table 17, 0-8 days, 10 μg/ml, control = 100%, read-out: PG in the clusters over 8 days, % of control): 126%
- activity at 100 µg/mL ([2]; Homo sapiens, Chondrocyte, foetal calf serum, Table 17, 0-8 days, 100 μg/ml, control = 100%, read-out: PG in the clusters over 8 days, % of control): 144%
- PGs in the clusters, effect in words ([2]; foetal calf serum, 10 and 100 μg/ml): significantly increased
- PG in the culture medium ([2]; foetal calf serum, Table 14, 0-4 days, 10 μg/ml): 7.6 ± 0.41 μg/μg DNA - 96 H
- PG in the culture medium ([2]; foetal calf serum, Table 14, 0-4 days, 100 μg/ml): 11.9 ± 2.09 μg/μg DNA - 96 H
- PG in the culture medium ([2]; foetal calf serum, Table 14, 4-8 days, 10 μg/ml): 2.32 ± 0.21 μg/μg DNA - 96 H
- PG in the culture medium ([2]; foetal calf serum, Table 14, 4-8 days, 100 μg/ml): 2.71 ± 0.24 μg/μg DNA - 96 H
- PG in the culture medium ([2]; foetal calf serum, Table 15, 0-4 days, 10 μg/ml): 7.1 ± 0.36 μg/μg DNA - 96 H
- PG in the culture medium ([2]; foetal calf serum, Table 15, 0-4 days, 100 μg/ml): 7.9 ± 0.30 μg/μg DNA - 96 H
- PG in the culture medium ([2]; foetal calf serum, Table 15, 4-8 days, 10 μg/ml): 2.1 ± 1.16 μg/μg DNA - 96 H
- PG in the culture medium ([2]; foetal calf serum, Table 15, 4-8 days, 100 μg/ml): 2.3 ± 0.13 μg/μg DNA - 96 H
- PG in the clusters over 8 days ([2]; foetal calf serum, Table 16, 0-8 days, 10 μg/ml): 1108 ± 166 ng/μg DNA
- PG in the clusters over 8 days ([2]; foetal calf serum, Table 16, 0-8 days, 100 μg/ml): 1142 ± 110 ng/μg DNA
- PG in the clusters over 8 days ([2]; foetal calf serum, Table 17, 0-8 days, 10 μg/ml): 724.0 ± 72.45 ng/μg DNA
- PG in the clusters over 8 days ([2]; foetal calf serum, Table 17, 0-8 days, 100 μg/ml): 832.0 ± 59.10 ng/μg DNA
